Consider 1 molecule from patent US20050142204A1 (priority 2001, published 2005).

The conditions of data set [1]: human, in vivo, 552 mg. The method, then: Four volunteers were invited randomly to take part in the trial. The volunteers were in a rested and fasted state when the trial began. A single dose of 552 mg (two soft gelatine capsules) was administered and blood samples were drawn 15 times over 36 hours.
Quantitative analysis of the blood samples was conducted using an HPLC method developed and validated at the Research Institute for Industrial Pharmacy. Results of the analysis were evaluated statistically and values for AUC, Cmax and tmax were obtained.
A) Chromatographic Condition: • Analytical instrument: HP1050 series HPLC with a pump, autosampler, UV detector and Chemstation Rev.
B) Sample Preparation with enzymatic hydrolysis: • 1. Pipet 1 ml of plasma into a 5 ml siliconised glass test tube. • 2. Add 1 ml of 0.2 M sodium acetate-acetic acid buffer, pH 5.0. • 3. […] Vortex mix for 10 seconds, seal and incubate at 40° C. for 12 hours. • 5. Add 0.5 ml of the internal standard solution and centrifuge at 14000 rpm (4900 RCF) for 10 minutes before applying to the SPE columns.
C) Internal Standard Solution: • 1. Weight approximately 5 mg of acenaphthene accurately and dissolve in 250 ml of solvent. • 2. Add 0.5 ml of this solution to all standards and samples.
D) Standard Solution: • 1. […] Make further dilutions of 5 ml to 100 ml and 10 ml to 50 ml in water to obtain 80, 16- and 4.0 μg/ml stock solutions.
3. […]

For data set [2] the following is noted: cited from earlier work.
Another data set has as its system malaria parasites. As to conditions: Surolia 2001, cited from earlier work.
The conditions of data set [3]: topical and oral; Bhargava & Leonard 1996; cited from earlier work.
The nature of another data set: Solubility of triclosan. In kind it is physicochemical.
Data set [4] relates to fatty acid synthesis in Plasmodium falciparum. As to conditions: cited from earlier work.

As for `Oc1cc(Cl)ccc1Oc1ccc(Cl)cc1Cl` [triclosan], in data set [1], the bioavailability result is “good in three of the four volunteers”. In addition, the solubility in water entry in data set [2] is recorded as “very low solubility in water”. The “activity against malaria parasites” value in the data set with malaria parasites is “active against malaria parasites”. Also, in the data set on malaria parasites (malaria), the effective dose is 28 to 38 mg/kg. In data set [3], the “safety in toxicity studies” value is given as “safe topically as well as orally”. Further, the solubility in oils result in “Solubility of triclosan” is listed as “very soluble in oils”. In addition, the “concentration sufficient for 50% inhibition of fatty acid synthesis” value in data set [4] (Surolia and Surolia (2001:168), printed in brackets beside the μM value) was 580 ng/mL. Further, in data set [4] (read-out: concentration sufficient for 50% inhibition of fatty acid synthesis, Surolia and Surolia (2001:168)), the IC50 is 3000 nM.
